pIC50: −log10 of the molar value.
Columns and labels:
[1] = biological target: T1, Aldo-keto reductase family 1 member A1 (Homo sapiens, UniProt P14550); test: In vitro inhibition of recombinant human aldehyde reductase
T1 sequence (P14550 whole entry): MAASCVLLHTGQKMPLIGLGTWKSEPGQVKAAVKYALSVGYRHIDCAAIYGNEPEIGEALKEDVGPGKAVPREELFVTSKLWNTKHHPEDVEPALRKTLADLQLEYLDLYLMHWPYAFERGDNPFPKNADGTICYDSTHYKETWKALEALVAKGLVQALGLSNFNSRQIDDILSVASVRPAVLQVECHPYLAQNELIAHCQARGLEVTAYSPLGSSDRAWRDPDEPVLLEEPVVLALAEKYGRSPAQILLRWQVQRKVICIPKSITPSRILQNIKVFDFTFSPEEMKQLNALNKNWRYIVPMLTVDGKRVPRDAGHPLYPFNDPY

[2] = biological target: Aldo-keto reductase family 1 member B1 (Homo sapiens, UniProt P15121); test: In vitro inhibition of recombinant human aldose reductase expressed in Escherichia coli
[3] = test system: Rattus norvegicus; test: Inhibition of sciatic nerve sorbitol accumulation in diabetic rats (streptozotocin treated) done for 30 minutes at 22 degree C in dark by using sorbitol dehydrogenase at 10 mg/kg/day; assay type: functional; conditions: 0.5 h
[4] = test system: Rattus norvegicus; test: Inhibition of sorbitol accumulation in lens of diabetic rats (streptozotocin treated) done for 30 minutes at 22 degree C in dark by using sorbitol dehydrogenase at 10 mg/kg/day; assay type: functional; conditions: Lens of camera-type eye, 0.5 h
[5] = Total body clearance was determined in fasted rats after p.o. doses of 6 mg/kg/day; assay type: ADME, organism-based; parameters: route oral; conditions: rat, in vivo, po, read-out: ClT
[6] = organism: Rattus norvegicus; conditions: Plasma
Description: Ability to lower elevated plasma triglyceride levels in diabetic rats (streptozotocin treated) model at 1.9 mg/kg/day

[7] = Area under the concentration time curve 0-24 hr was determined in fasted rats after i.v. doses of 10 mg/kg/day; assay type: ADME, organism-based; parameters: time < 24 hr, dose 10 mg/kg/day, route intravenous; conditions: rat, in vivo, iv
[8] = organism: Rattus norvegicus; conditions: Plasma; remark: listed apart in the source
Description: Ability to lower elevated plasma triglyceride levels in diabetic rats (streptozotocin treated) model at 4.8 mg/kg/day

[9] = Total body clearance was determined in nonfasted rats after p.o. doses of 6 mg/kg/day; assay type: ADME, organism-based; parameters: route oral; conditions: rat, in vivo, po, read-out: ClT
[10] = organism: Rattus norvegicus
Description: Ability to lower elevated glucose levels in diabetic rats (streptozotocin treated) model at 1.4 mg/kg/day

[11] = Area under the concentration time curve 0-24 h was determined in nonfasted rats after p.o. doses of 6 mg/kg/day; assay type: ADME, organism-based; parameters: dose 6 mg/kg/day, time < 24 hr, route oral; conditions: rat, in vivo, po
[12] = test system: Rattus norvegicus; test: Myo-inositol accumulation in 3 month diabetic rats (streptozotocin treated) done for 30 minutes at 22 degree C in dark by using sorbitol dehydrogenase at 5 mg/kg/day; assay type: functional
[13] = organism: Rattus norvegicus; remark: listed apart in the source
Description: Sorbitol accumulation in 3 month diabetic rats (streptozotocin treated) done for 30 minutes at 22 degree C in dark by using sorbitol dehydrogenase at 5 mg/kg/day; BQL is Below quantifiable level

[14] = organism: Rattus norvegicus; remark: listed apart in the source
Description: Ability to lower elevated glucose levels in diabetic rats (streptozotocin treated) model at 4.8 mg/kg/day

[15] = organism: Rattus norvegicus; remark: listed apart in the source
Description: Ability to lower elevated glucose levels in diabetic rats (streptozotocin treated) model at 1.9 mg/kg/day

[16] = Half-life was determined in fasted rats after p.o. doses of 6 mg/kg/day; assay type: ADME, organism-based; parameters: route oral; conditions: rat, in vivo, po
[17] = Time require to reach maximum plasma concentration was determined in fasted rats after i.v. doses of 10 mg/kg/day; assay type: ADME, organism-based; parameters: route intravenous; conditions: rat, iv
[18] = organism: Rattus norvegicus; remark: listed apart in the source
Description: Ability to lower elevated glucose levels in diabetic rats (streptozotocin treated) model at 0.48 mg/kg/day

[19] = organism: Rattus norvegicus; conditions: Plasma; remark: listed apart in the source
Description: Ability to lower elevated plasma triglyceride levels in diabetic rats (streptozotocin treated) model at 0.95 mg/kg/day

[20] = organism: Rattus norvegicus; conditions: Plasma; remark: listed apart in the source
Description: Ability to lower elevated plasma triglyceride levels in diabetic rats (streptozotocin treated) model at 0.48 mg/kg/day

[21] = Area under the concentration time curve 0-24 hr was determined in fasted rats after p.o. doses of 6 mg/kg/day; assay type: ADME, organism-based; parameters: time < 24 hr, dose 6 mg/kg/day, route oral; conditions: rat, in vivo, po
[22] = Total body clearance was determined in fasted rats after i.v. doses of 10 mg/kg/day; assay type: ADME, organism-based; parameters: route intravenous; conditions: rat, in vivo, iv, read-out: ClT
[23] = Maximum plasma concentration was determined in fasted rats after i.v. doses of 10 mg/kg/day; assay type: ADME, organism-based; parameters: dose 10 mg/kg/day, route intravenous; conditions: rat, in vivo, iv
[24] = test system: Rattus norvegicus; test: Fructose accumulation in 3 month diabetic rats (streptozotocin treated) done for 30 minutes at 22 degree C in dark by using sorbitol dehydrogenase at 5 mg/kg/day; assay type: functional
[25] = organism: Rattus norvegicus; conditions: Plasma; remark: listed apart in the source
Description: Ability to lower elevated plasma triglyceride levels in diabetic rats (streptozotocin treated) model at 1.4 mg/kg/day

[26] = test system: Rattus norvegicus; test: Improvement in myo-inositol accumulation in 3 month diabetic rats (streptozotocin treated) done for 30 minutes at 22 degree C in dark by using sorbitol dehydrogenase at 5 mg/kg/day; assay type: functional
[27] = Time require to reach maximum plasma concentration was determined in fasted rats after p.o. doses of 6 mg/kg/day; assay type: ADME, organism-based; parameters: route oral; conditions: rat, po
[28] = Maximum plasma concentration was determined in nonfasted rats after p.o. doses of 6 mg/kg/day; assay type: ADME, organism-based; parameters: dose 6 mg/kg/day, route oral; conditions: rat, in vivo, po
[29] = Maximum plasma concentration was determined in fasted rats after p.o. doses of 6 mg/kg/day; assay type: ADME, organism-based; parameters: dose 6 mg/kg/day, route oral; conditions: rat, in vivo, po
[30] = test system: Rattus norvegicus; test: Improvement in fructose accumulation in 3 month diabetic rats (streptozotocin treated) done for 30 minutes at 22 degree C in dark by using sorbitol dehydrogenase at 5 mg/kg/day; assay type: functional
[31] = Volume of distribution was determined in fasted rats after i.v. doses of 10 mg/kg/day; assay type: ADME, organism-based; parameters: route intravenous; conditions: rat, in vivo, iv
[32] = test system: Rattus norvegicus; test: Improvement in sorbitol accumulation in 3 month diabetic rats (streptozotocin treated) done for 30 minutes at 22 degree C in dark by using sorbitol dehydrogenase at 5 mg/kg/day; assay type: functional
[33] = Half-life was determined in nonfasted rats after p.o. doses of 6 mg/kg/day; assay type: ADME, organism-based; parameters: route oral; conditions: rat, in vivo, po
[34] = Half-life was determined in fasted rats after i.v. doses of 10 mg/kg/day; assay type: ADME, organism-based; parameters: route intravenous; conditions: rat, in vivo, iv
[35] = organism: Rattus norvegicus; remark: listed apart in the source
Description: Ability to lower elevated glucose levels in diabetic rats (streptozotocin treated) model at 0.95 mg/kg/day

[36] = Time require to reach maximum plasma concentration was determined in nonfasted rats after p.o. doses of 6 mg/kg/day; assay type: ADME, organism-based; parameters: route oral; conditions: rat, po

O=C(O)Cn1cc(Cc2nc3cc(C(F)(F)F)ccc3s2)c2ccc(Br)cc21
pIC50 [1]: 5.47

O=C(O)Cn1cc(Cc2nc3cccc(F)c3s2)c2ccccc21
pIC50 [1]: 4.74 | pIC50 [2]: 7.26

O=C(O)Cc1nn(Cc2nc3cc(C(F)(F)F)ccc3s2)c(=O)c2ccccc12 [ZOPOLRESTAT]
inhibition in vivo at 10 mg/kg/day [3]: 80% | inhibition in vivo at 10 mg/kg/day [4]: 9% | pIC50 [1]: 4.41

O=C(O)Cn1cc(Cc2nc3cc(C(F)(F)F)ccc3s2)c2cc(Cl)ccc21
pIC50 [1]: 5.31 | pIC50 [2]: 6.89

CC(C(=O)O)n1cc(Cc2nc3c(F)c(F)cc(F)c3s2)c2ccccc21 (stereo not drawn)
pIC50 [2]: 6.79

O=C(O)Cn1cc(CCc2nc3c(F)c(F)cc(F)c3s2)c2ccccc21
pIC50 [1]: 4.96 | pIC50 [2]: 8.10

Cc1ccc2c(c1)c(Cc1nc3cc(C(F)(F)F)ccc3s1)cn2CC(=O)O
pIC50 [1]: 4.99 | pIC50 [2]: 7.00

O=C(O)Cn1cc(Cc2nc3c(F)cc(F)cc3s2)c2ccccc21
pIC50 [1]: 5.29 | pIC50 [2]: 6.16

O=C(O)Cn1cc(Cc2nc3cc(F)ccc3s2)c2ccccc21
pIC50 [1]: 5.19

O=C(O)Cn1cc(Cc2nc3c(F)c(F)cc(F)c3s2)c2ccccc21 [LIDORESTAT]
CL/F [5]: 2.24 mL/min/kg | Level [6]: 218 mg/dL | AUC [7]: 97.1 ug equiv/h/mL | Level [8]: 189 mg/dL | CL/F [9]: 1.37 mL/min/kg | Level [10]: 427 mg/dL | AUC [11]: 72.8 ug equiv/h/mL | Accumulation [12]: 9.26 nM/mg of dry wt | Accumulation [13]: Below quantifiable level | Level [14]: 417 mg/dL | Level [15]: 440 mg/dL | half-life [16]: 5.61 h | Tmax [17]: 4.8 min | inhibition in vivo at 10 mg/kg/day [3]: 100% | Level [18]: 432 mg/dL | inhibition in vivo at 10 mg/kg/day [4]: 77% | Level [19]: 261 mg/dL | Level [20]: 301 mg/dL | AUC [21]: 43.5 ug equiv/h/mL | clearance [22]: 1.7 mL/min/kg | Cmax [23]: 24 ug equiv/mL | Accumulation [24]: 1.62 nM/mg of dry wt | Level [25]: 242 mg/dL | Accumulation [26]: 79% | Tmax [27]: 3.5 h | Cmax [28]: 6.09 µg equiv/mL | Cmax [29]: 4.18 ug equiv/mL | Accumulation [30]: 100% | Vd [31]: 0.694 L/kg | Accumulation [32]: 100% | half-life [33]: 5.18 h | half-life [34]: 5.04 h | Level [35]: 430 mg/dL | Tmax [36]: 5 h

O=C(O)Cn1cc(Cc2nc3c(F)c(F)cc(F)c3s2)c2cc(Br)ccc21
pIC50 [1]: 5.33

O=C(O)Cn1cc(Cc2nc3cc(F)c(F)cc3s2)c2ccccc21
pIC50 [1]: 4.89 | pIC50 [2]: 6.25

O=C(O)Cn1cc(Cc2nc3c(F)c(F)cc(F)c3s2)c2ccc(N3CCOCC3)cc21
pIC50 [1]: 4.36

O=C(O)Cn1cc(C(=O)c2nc3c(F)c(F)cc(F)c3s2)c2ccccc21
pIC50 [2]: 5.80

O=C(O)Cn1cc(Cc2nc3ccc(Cl)cc3s2)c2ccccc21
pIC50 [1]: 5.68

O=C(O)Cn1cc(Cc2nc3ccc(F)cc3s2)c2ccccc21
pIC50 [2]: 6.00

COc1ccc2c(c1)c(Cc1nc3c(F)c(F)cc(F)c3s1)cn2CC(=O)O
pIC50 [2]: 8.10

O=C(O)Cn1cc(Cc2nc3c(F)cccc3s2)c2ccccc21
pIC50 [1]: 4.96 | pIC50 [2]: 7.47

Cc1ccc2c(Cc3nc4c(F)c(F)cc(F)c4s3)cn(CC(=O)O)c2c1
pIC50 [2]: 8.00

COc1ccc2c(C(=S)N(C)CC(=O)O)cccc2c1C(F)(F)F [TOLRESTAT]
inhibition in vivo at 10 mg/kg/day [3]: 27% | inhibition in vivo at 10 mg/kg/day [4]: 7%

O=C(O)Cn1cc(Cc2nc3c(F)c(F)cc(F)c3s2)c2ccc(-c3ccccc3)cc21
pIC50 [1]: 5.21

O=C(O)Cn1c(=O)n(Cc2ccc(Br)cc2F)c(=O)c2ccc(Cl)cc21 [ZENARESTAT]
inhibition in vivo at 10 mg/kg/day [3]: 64% | inhibition in vivo at 10 mg/kg/day [4]: 2% | pIC50 [1]: 5.00 | pIC50 [2]: 8.10
